Target: T1, NK1 receptor (Homo sapiens, UniProt P25103)
T1 construct: endogenous in cells; host or cells: IM9 cells (intact)
Assay: [3H] SP binding assay in IM9 Cell Line (intact cells)
Description: Assessment of biological activity (antagonist activity on NK1 receptor) of compounds of this invention was performed by means of the following binding and functional assays:
[3H] SP binding assay in IM9 Cell Line
Binding assay was performed with intact cells as described by Goso et al (Eur.J.Pharmacol. 254,221,1994).

T1 sequence (P25103 whole entry): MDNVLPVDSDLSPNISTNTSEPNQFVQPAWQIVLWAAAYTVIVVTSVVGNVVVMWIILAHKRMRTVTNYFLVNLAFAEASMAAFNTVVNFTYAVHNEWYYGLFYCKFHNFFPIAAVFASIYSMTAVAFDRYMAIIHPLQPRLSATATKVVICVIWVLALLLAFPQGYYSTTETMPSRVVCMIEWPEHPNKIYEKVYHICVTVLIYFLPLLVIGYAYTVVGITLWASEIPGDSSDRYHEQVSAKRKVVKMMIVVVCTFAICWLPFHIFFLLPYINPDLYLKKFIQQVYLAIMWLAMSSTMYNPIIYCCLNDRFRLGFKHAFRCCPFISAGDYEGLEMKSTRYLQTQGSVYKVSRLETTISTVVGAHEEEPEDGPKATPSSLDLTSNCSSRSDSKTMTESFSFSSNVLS

pKi (Substance P antagonism Results)	Structure (SMILES)
< 5	C[C@H](C(=O)N(C)[C@H](Cc1ccc2ccccc2c1)NC(=O)C1CCCCC1NC(=O)c1c[nH]c2ccccc12)c1ccccc1 (stereo partly drawn) [9 (fast), 1-{N-(1(H)indol-3-yl-carbonyl)(1R,2S)-2-aminocyclohexanecarbonyl}-amino-1-(N-methyl-N-((S)2-phenylpropionyl))amino-2-(2-naphthyl)ethane]
8.7	C[C@@H](C(=O)N(C)[C@H](Cc1ccc2ccccc2c1)NC(=O)C1CCCCC1NC(=O)c1c[nH]c2ccccc12)c1ccccc1 (stereo partly drawn) [10 (fast), 1-{N-(1(H)indol-3-yl-carbonyl)(1R,2S)-2-aminocyclohexane-carbonyl}-amino-1-(N-methyl-N-((R)2-phenylpropionyl))Ammino-2-(2-naphthyl)ethane]
< 6	O=C(Cc1ccccc1)N[C@H](Cc1ccccc1)NC(=O)C1CCCCC1NC(=O)c1c[nH]c2ccccc12 (stereo partly drawn) [2 (fast), 1-{N-(1(H)indol-3-yl-carbonyl) (1R,2S)-2-aminocyclohexanecarbonyl}-amino-1-(phenylacetyl)amino-2-phenyl-ethane]
< 6	O=C(NC1CCCCC1C(=O)N[C@@H](Cc1ccccc1)C(=O)OCc1ccccc1)c1c[nH]c2ccccc12 (stereo partly drawn) [1 (fast)]
< 5	CN(C(=O)Cc1ccccc1)[C@H](Cc1ccc2ccccc2c1)NC(=O)C1CCCCC1NC(=O)c1c[nH]c2ccccc12 (stereo partly drawn) [3 (slow), 1-{N-(1(H)indol-3-yl-carbonyl)(1S,2R)-2-aminocyclohexanecarbonyl}-amino-1-(N-methyl-N-phenylacetyl) amino-2(2-naphthyl)ethane]
8.7	Cc1ccc(CC(=O)N(C)[C@H](Cc2ccc3ccccc3c2)NC(=O)C2CCCCC2NC(=O)c2c[nH]c3ccccc23)cc1 (stereo partly drawn) [12 (fast), 1-{N-(1(H)indol-3-yl-carbonyl)(1R,2S)-2-aminocyclohexanecarbonyl}-amino-1-(N-methyl-N-4-methylphenylacetyl)amino-2(2-naphthyl)ethane]
8.4	CN(C(=O)Cc1ccc(Cl)cc1)[C@H](Cc1ccc2ccccc2c1)NC(=O)C1CCCCC1NC(=O)c1c[nH]c2ccccc12 (stereo partly drawn) [11 (fast), 1-{N-(1(H)indol-3-yl-carbonyl)(1R,2S)-2-aminocyclohexanecarbonyl}-amino-1-(N-methyl-N-4-chlorophenylacetyl)amino-2(2-naphthyl)ethane]
< 5	O=C(NC1CCCCC1C(=O)N[C@H](COCc1cc(C(F)(F)F)cc(C(F)(F)F)c1)Cc1ccc2ccccc2c1)c1c[nH]c2ccccc12 (stereo partly drawn) [4 (fast)]
8.4	CN(C(=O)Cc1ccccc1)[C@H](Cc1ccc2ccccc2c1)NC(=O)C1CCCCC1NC(=O)c1c[nH]c2ccccc12 (stereo partly drawn) [3 (fast), 1-{N-(1(H)indol-3-yl-carbonyl) (1R,2S)-2-aminocyclohexanecarbonyl}-amino-1-(N-methyl-N-phenylacetyl)amino-2(2-naphthyl)ethane]
